Measured values from PMC6010047, “Design, synthesis and biological evaluation of novel hydroxy-phenyl-1H-benzimidazoles as radical scavengers and UV-protective agents” (Journal of Enzyme Inhibition and Medicinal Chemistry, 2017).
Read-outs that look alike come from different tables or passages of the source.

Columns and labels:
NCTC-2544 cells = test: Phototoxicity / cellular photoprotection, UVA or UVB irradiation, MTT test; conditions: for viability at 50 µM: Homo sapiens, NCTC-2544, light or radiation study, 48 h
Method: (§2) An immortalized, nontumorigenic cell line of human keratinocytes (NCTC-2544) was grown in a DMEM medium (Sigma-Aldrich Milan, Italy), supplemented with 115 units/mL of penicillin G, 115 μg/mL streptomycin, and 10% fetal calf serum (Invitrogen, Milan, Italy). Individual wells of a 96-well tissue culture microtiter plates (Falcon, Becton–Dickinson) were inoculated with 100 μL of complete medium containing 5 × 10^3 NCTC-2544. The plates were incubated at 37 °C in a humidified (5% CO2) incubator for 18 h prior to the experiments.
Two HPW 125 Philips lamps, mainly emitting at 365 nm, were used for UVA irradiation experiments. The spectral irradiance of the source was 4.0 mWcm^−^2 as measured at the sample level by a Cole-Parmer Instrument Company radiometer (Niles, IL) equipped with a 365-CX sensor. One or two PL-S 9 W/12 Philips lamps (280–370 nm; peak at 315 nm) were used for UVB irradiation experiments. To restrict the incident radiation to the range 305–370 nm, a glass filter (Schott SWG-305) was used. Total energy was detected by the same equipped with a sensor (model CX-312).
After medium removal, 100 μL of the drug solution, dissolved in DMSO and diluted with Hank’s Balanced Salt Solution (HBSS pH =7.2), was added to each well, incubated at 37 °C for 30 min, and then irradiated (20 J/cm^2 for UVA and 0.5 and 1 J/cm^2 for UVB). After irradiation, the solution was replaced with the medium and the plates were further incubated for 48 h. Cell viability was assayed by the MTT [(3–(4,5-dimethylthiazol-2-yl)-2,5 diphenyl tetrazolium bromide)] test as previously described by Mosmann[27].
Molecules were verified for their photocytotoxicity in the same cell line; the cells were treated with 50 μM solutions of compound and after 30 min were irradiated with 20 J/cm^2 UVA or with UVB at two energy amounts: 0.5 J/cm^2 and 1 J/cm^2 UVB. […] After irradiation, the solution was replaced with growth medium and the cells were further incubated for 48 h, and then, cell viability was assessed by MTT assay. […] The phototoxicity of tested molecules was compared with the ratio of cell survival of irradiated keratinocytes without substance (IC = irradiated control).

[1] = Cytotoxicity, MTT test, 72 h; conditions: human, NCTC-2544 keratinocytes (immortalized, nontumorigenic)
Method: as §2
After medium removal, 100 μL of the drug solution, dissolved in DMSO and diluted in DMEM medium, was added to each well, incubated at 37 °C for 72 h. Final DMSO concentration never exceeded 0.5%. Cell viability was assayed by the MTT (3–(4,5-dimethylthiazol-2-yl)-2,5 diphenyl tetrazolium bromide) test as previously described by Mosmann[27].
The tests were conducted using a specific cell line of human keratinocytes (NCTC-2544). To assess cell viability, in the presence of the study compounds, before and after the irradiation, the MTT assay was performed[27]. The cytotoxicity was checked after 72 h from the incubation of the keratinocytes with compounds; moreover, the same experiments were performed in the presence of the parent PBSA.

[2] = PCL antioxidant activity of finished formulations; assay type: biochemical; conditions: 3% (w/w) compound in O/W formulation
Method: (§1) PCL assay, based on the methodology of Popov and Lewin[23], was used to measure the antioxidant activity of synthesized compounds with a Photochem® apparatus (Analytik Jena, Leipzig, Germany) against superoxide anion radicals generated from luminol, a photosensitizer, when exposed to UV light (Double Bore® phosphor lamp, output 351 nm, 3 mWatt/cm^2). The antioxidant activity was measured using ACL (Antioxidant Capacity of Liposoluble substance) kit provided by the manufacturer designed to measure the antioxidant activity of lipophilic compounds[24]. […] The areas under the curves were calculated using the PCLsoft control and analysis software. […] This inhibition was used as a parameter for quantification and related to the decrease in the integral of PCL intensities caused by varying concentrations of Trolox. The observed inhibition of the signal was plotted against the concentration of Trolox added to the assay medium. The concentration of the added tested compounds was such that the generated luminescence during the 180-s sampling interval fell within the limits of the standard curve. The antioxidant assay was carried out in triplicate for each sample, and 20 μL of the diluted compound in HPLC-grade methanol (ACL) was sufficient to correspond to the standard curve.
It was decided to use a standard formulation oil in water (O/W).
In particular, molecules with phenolic hydroxyl in the ortho position on the phenyl ring (4, 5, 9, 10 and 13) had better and higher UVA/UVB ratio and critical wavelength, although they have the SPF value less than lead compound. Formulation containing products 2 and 14, which have a phenolic hydroxyl at the para position on the phenyl ring, have shown good values in terms of SPF, greater UVA protection factor, critical wavelength and also higher UVA/UVB ratio than PBSA, but yet lower than the molecules containing hydroxyl on the phenyl ring in ortho. […] Compound 8 has lower SPF than 3, but higher than PBSA; in comparison with 3, molecules 8 and 12 presented higher UVA/UVB ratio and critical wavelength. Regarding compounds with three hydroxyls on phenyl ring, they have good UVA filtering parameters, their critical wavelengths are the highest and SPF is higher than PBSA for molecule 6, while SPF of 15 is slightly lower and decreases further in molecule 11. Thus, it can be observed that parameters are mainly influenced by the number and position of the hydroxyl groups on the phenyl ring rather than the substituent in the 5-position of benzimidazole. Concomitantly, all formulations were analyzed to assess whether the antioxidant power was maintained. […] In Table 4, the antioxidant activity, measured by PCL method, of finished formulations is reported; as it can be seen results were in agreement with that obtained testing the pure compounds. […] Formulations containing compounds 3, 8 and 12 presented highest antioxidant capabilities; these are followed, but with important decrease in antioxidant capacity, by formulations with compounds 6, […] and 15 that have three hydroxyl moieties on phenyl ring.

[3] = Ferric reducing antioxidant of potency (FRAP) assay; assay type: biochemical; conditions: Trolox equivalents; mean ± SE of three experiments
Method: The ferric reducing ability of each standard solution was measured according to a modified protocol described by Guihua et al.[26]. The reagent for analysis was freshly prepared by mixing the following solutions in the reported ratio 10/1/1 (v:v:v) (i) 0.1 M acetate buffer pH 3.6, (ii) TPTZ (2,4,6-Tri(2-pyridyl)-s-triazine) 10 mmol/L in 40 mmol/HCl, (iii) ferric chloride 20 mmol/L. To a 1.9 mL of reagent were added 0.1 mL of sample proper diluted or solvent when blank was performed. Readings at fixed wavelength of the absorption maximum (593 nm) were done after 30 min, using a UV-VIS spectrophotometer; it was evaluated the absorbance increase of sample solution against the absorbance of blank reaction as parameter to calculate the antioxidant activity. The antioxidant activity is given as Trolox activity since this standard was used to perform the calibration curves.

[4] = Photochemiluminescence (PCL) method, ACL kit; assay type: biochemical; conditions: pure compound; Trolox equivalents; mean ± SE of three experiments
Method: as §1

[5] = 1,1-Diphenyl-2-picryl-hydrazyl radical (DPPH) assay; assay type: biochemical; conditions: Trolox equivalents; mean ± SE of three experiments
Method: To 1.5 mL DPPH methanolic solution (0.5 mM) was added 0.750 mL of sample solution proper diluted. Samples absorbance measurements were evaluated with a UV-VIS spectrophotometer (Thermo Spectronic Helios γ, Cambridge, UK) at fixed wavelength of 517 nm. Blank sample was prepared adding methanol to DPPH solution and Trolox was used as standard reference to achieve a calibration curve. The radical-scavenging activity is expressed as inhibition ratio of initial concentration of DPPH radical and is calculated according to the formula: Inhibition percentage (Ip) = [(AB-As)/AB]·100; where AB and As are, respectively, the absorbance values of blank reaction and of the tested sample[25].

Work on `O=C(O)c1ccc2[nH]c(-c3ccc(O)c(O)c3O)nc2c1` [Compound 15, 2-(2,3,4-Trihydroxy-phenyl)-1H-benzimidazole-5-carboxylic acid] yielded a viability at 50 µM (NCTC-2544 cells; read-out: % Cell survival UVA 20 J/cm^2) of 12.2 ± 1.3%, a viability at 50 µM (NCTC-2544 cells; read-out: % Cell survival UVB 0.5 J/cm^2) of 60.1 ± 2.3% and a viability at 50 µM (NCTC-2544 cells; read-out: % Cell survival UVB 1 J/cm^2) of 25.6 ± 2.7%. For the same molecule, the “phototoxic effect (cell survival vs irradiated control)” value (NCTC-2544 cells; NCTC-2544, UVA/UVB irradiation) was “phototoxic effect”, the IC50 at 72 h [1] was > 50 µM and the “PCL of finished formulation” value [2] was 86.99 ± 6.95 μmol Trolox/g formulation. The FRAP [3] was 2355.15 ± 52.55 μmolTrolox/mmol, the PCL [4] was 1515.65 ± 75.56 μmolTrolox/mmol and the DPPH [5] was 1241.03 ± 9.43 μmolTrolox/mmol.
